Measurements reported in article PMC6981941 (International Journal of Molecular Sciences, 2019).

Key:
YpHddC [1] = biological target: T1, YpHddC (Yersinia pseudotuberculosis, UniProt Q8GJ90)
T1 construct: gene hddC

YpHddC [2] = biological target: T1, YpHddC; remark: listed apart in the source

T1 sequence (Q8GJ90 1-225 limits assumed): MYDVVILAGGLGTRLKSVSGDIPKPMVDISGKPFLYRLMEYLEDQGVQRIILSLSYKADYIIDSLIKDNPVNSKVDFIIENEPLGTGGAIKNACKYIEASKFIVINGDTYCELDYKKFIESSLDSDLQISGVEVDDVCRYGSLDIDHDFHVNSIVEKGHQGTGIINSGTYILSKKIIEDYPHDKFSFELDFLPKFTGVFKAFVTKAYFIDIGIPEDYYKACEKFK

Row | SMILES | X-ray crystal structure, 1.55 Å (YpHddC [1]) | malachite green assay with pyrophosphatase (YpHddC [2])
1 | Nc1nc2c(ncn2[C@@H]2O[C@H](COP(=O)(O)OP(N)(=O)O)[C@@H](O)[C@H]2O)c(=O)[nH]1 [GMPPN] | The extra densities were well matched with one magnesium, one GMPPN (Figure A1) | –
2 | Nc1nc2c(ncn2[C@@H]2O[C@H](COP(=O)(O)OP(=O)(O)OP(=O)(O)O)[C@@H](O)[C@H]2O)c(=O)[nH]1 [GTP] | – | The main molecular property of YpHddC is its GTP preference
3 | O=P(O)(O)O[C@H]1O[C@H](CO)[C@@H](O)[C@H](O)[C@@H]1O [αM1P] | – | we used α-D-Mannose-1-phosphate (αM1P) purchased from Sigma for a substrate
